Laboratory results taken from EP0221208B1, “Hair growth promoting compositions” (MEIJI SEIKA KAISHA LTD., priority 1985, dated 1987).

Tested on: Cynomolgus monkeys (Crab-eating macaques)
Experiment: Increase in temperature of the true skin after application to the skin surface (Test No. 2, net effect TE)
Assay type: in vivo
Settings: Test (ii); ester as penetration agent at 0.5% (w/v) or more in gel-like tonic formulation containing Substance MH-548
Method: For the purpose of confirming whether Substance P or Substance P-related peptide of the formula (II) is actually effective to increase the blood flow in the capillary blood vessels at a local area of the skin, we have conducted some experiments where the hair growth promoting formulation of this invention was applied to a local skin surface of monkies, and an increase in the temperature of the underlying true skin tissue below the local skin surface was measured, which should be considered to be invoked by such increase in the local blood flow at the local skin site owing to the vasodilating activity of Substance P or Substance P-related peptide of the formula (II).
Cynomolgus monkeys (Crab-eating macaques) (female, body weight 3.8-4.2 kg) were fixed each in a device for fixing the monkey. The hair was cut off from an area in the upper arms of each monkey. A probe of a thermometer for measurement of the temperature in a deep place (a thermometer commercially available from Telmo Co., Ltd., Japan) was sent into the hair-removed areas of each upper arm of the monkey, and the temperature in the true skin layer of the left and right upper arms of the monkey was measured before the administration of the active peptide for promoting the hair growth was made. […]
Thus, the following parameters were evaluated. […]

Compound: CCOC(=O)CCCCCCCCC(=O)OCC [di-ethyl sebacate]
- effect of increasing the temperature in the true skin (TE): better effect than isopropyl myristate and di-isopropyl adipate
